Columns and labels:
SARS-CoV-2 replicon = test: microbe, parasite or virus in culture; assay type: cell-based; conditions: Severe acute respiratory syndrome coronavirus 2, Huh-7
[1] = molecular target: SARS-CoV-2 Papain-like (PLpro) protease (Severe acute respiratory syndrome coronavirus 2, UniProt P0DTD1); test: SARS-CoV-2 Papain-like (PLpro) protease biochemical enzyme inhibition assay (ubiquitin-fluorophore substrate, Ub-R110); conditions: Ub-R110 substrate; run in duplicate; read-out: PLpro IC50

Structure (SMILES) | EC50 (SARS-CoV-2 replicon) [nM] | IC50 [1] [nM]
COc1cc(C2(NC(=O)c3ccccc3CNC(=O)C(=O)N[C@@H](C)C#Cc3ncccn3)CC2)cc2cn(C3CC3)nc12 [Example 532] | < 1000 | < 100
CN1C[C@H](F)C[C@H]1COc1ccc(CNC(=O)C(=O)NCC#N)c(C(=O)NC2(c3cccc4ccccc34)CC2)c1 [Example 318] | < 1000 | < 100
COc1cccnc1C#C[C@H](C)NC(=O)C(=O)NCc1ccccc1C(=O)NC1(c2cc(F)cc(-c3cnn(C4CC4)c3)c2)CC1 [Example 265] | < 1000 | < 100
N#CCNC(=O)C(=O)NCc1ccccc1C(=O)NC1(c2cc(-c3cccs3)cc3ccccc23)CC1 [Example 347] | < 1000 | < 100
C#CCNC(=O)C(=O)NCc1ccccc1C(=O)NC1(c2ccc3nn(C)cc3c2)CC1 [Example 338] | < 1000 | < 100
C[C@@H](C#Cc1nccs1)NC(=O)C(=O)NCc1ccccc1C(=O)NC1(c2cc(Cl)c3nn(C4CC4)cc3c2)CC1 [Example 335] | < 1000 | < 100
N#CN1CC[C@H]1CNC(=O)C(=O)NCc1ccccc1C(=O)NC1(c2cccc3ccccc23)CC1 [Example 500] | < 1000 | < 100
Cn1cc2cc(C3(NC(=O)c4ccccc4CNC(=O)C(=O)NCC#Cc4ccc(C#N)cc4OC(F)(F)F)CC3)ccc2n1 [Example 214] | < 1000 | < 100
CN(C)CCn1cc(-c2cc(F)cc(C3(NC(=O)c4ccccc4CNC(=O)C(=O)NCC#Cc4ccccn4)CC3)c2)cn1 [Example 250] | < 1000 | < 100
CN1CCC(n2cc(-c3cc(F)cc(C4(NC(=O)c5ccccc5CNC(=O)C(=O)NCC#Cc5ncco5)CC4)c3)cn2)CC1 [Example 257] | < 1000 | < 100
C#CCNC(=O)C(=O)NCc1ccccc1C(=O)NC1(c2cc(Cl)cc(-c3cn(C)nc3C)c2)CC1 [Example 485] | < 1000 | < 100
N#CCNC(=O)C(=O)NCc1ccccc1C(=O)NC1(c2cc(Cl)cc(-n3cccn3)c2)CC1 [Example 480] | 1000 to 10000 | < 100
CN1C(=O)c2cccc3c(C4(NC(=O)c5ccccc5CNC(=O)C(=O)NCC#N)CC4)ccc1c23 [Example 428] | 1000 to 10000 | < 100
CC(C)n1ccnc1C#CCNC(=O)C(=O)NCc1ccccc1C(=O)NC1(c2cc(F)cc(-c3cnn(C4CC4)c3)c2)CC1 [Example 277] | < 1000 | < 100
O=C(NC/C=C/S(=O)(=O)c1ccccc1)C(=O)NCc1ccccc1C(=O)NC1(c2ccc3ccccc3c2)CC1 [Example 173] | < 1000 | < 100
COc1cccc(C#CCNC(=O)C(=O)NCc2ccccc2C(=O)NC2(c3ccc4ccccc4c3)CC2)n1 [Example 186] | < 1000 | < 100
CC(C)(C)OC(=O)/C=C/CNC(=O)C(=O)NCc1ccccc1C(=O)NC1(c2cccc3ccccc23)CC1 [Example 571] | 1000 to 10000 | 100 to 1000
COC(=O)C#CCCNC(=O)C(=O)NCc1ccccc1C(=O)N[C@H](C)c1cccc2ccccc12 [Example 8] | < 1000 | < 100
Cc1nn(C)c(C)c1-c1cc(F)cc(C2(NC(=O)c3ccccc3CNC(=O)C(=O)NCC#Cc3nccs3)CC2)c1F [Example 295] | < 1000 | < 100
C#CCNC(=O)C(=O)NCc1ccccc1C(=O)NC1(c2cc(F)c(F)c(-c3cccs3)c2)CC1 [Example 241] | 1000 to 10000 | < 100

Structure (SMILES) | EC50 (SARS-CoV-2 replicon) [nM] | IC50 [1] [nM]
CCN(OC)C(=O)/C=C/CNC(=O)C(=O)NCc1ccccc1C(=O)NC1(c2cccc3ccccc23)CC1 [Example 558] | 1000 to 10000 | 100 to 1000
N#CN1CC(CNC(=O)C(=O)NCc2ccccc2C(=O)NC2(c3cc(F)cc(-c4cnn(C5CC5)c4)c3)CC2)C1 [Example 431] | 1000 to 10000 | 100 to 1000
COc1cccnc1C#C[C@H](C)NC(=O)C(=O)NCc1ccccc1C(=O)NC1(c2ccc3nn(C)cc3c2)CC1 [Example 273] | < 1000 | < 100
COc1cc(C2(NC(=O)c3ccccc3CNC(=O)C(=O)N[C@@H](C)C#Cc3ccc(S(C)(=O)=O)cc3F)CC2)cc2cn(C3CC3)nc12 [Example 149] | < 1000 | < 100
C[C@@H](C#Cc1c(F)cccc1C#N)NC(=O)C(=O)NCc1ccccc1C(=O)NC1(c2ccc3nn(C)cc3c2)CC1 [Example 100] | < 1000 | < 100
O=C(NCC#Cc1nccs1)C(=O)NCc1ccccc1C(=O)NC1(c2cc(F)cc(C(=O)N3CCOCC3)c2)CC1 [Example 138] | < 1000 | < 100
Cc1n[nH]cc1-c1cc(C2(NC(=O)c3ccccc3CNC(=O)C(=O)NCC#N)CC2)c2ccccc2c1 [Example 284] | < 1000 | < 100
N#CN1CC[C@@H](C(=O)NCc2ccccc2C(=O)NC2(c3cc(Br)cc4ccccc34)CC2)C1 [Example 416] | < 1000 | 
CC1(O)CN(c2cc(C3(NC(=O)c4ccccc4CNC(=O)C(=O)NCC#N)CC3)c3ccccc3c2)C1 [Example 319] | 1000 to 10000 | < 100
N#CCNC(=O)C(=O)NCc1ccccc1C(=O)NC1(c2cc(-c3cnn(C(F)F)c3)cc(C(F)(F)F)c2)CC1 [Example 472] | > 10000 | 100 to 1000
O=C(NCC#Cc1nccs1)C(=O)NCc1ccccc1C(=O)NC1(c2cc(Cl)cc(-c3cnco3)c2)CC1 [Example 449] | < 1000 | < 100
CN(C(=O)c1cc(Cl)cc(C2(NC(=O)c3ccccc3CNC(=O)C(=O)NCC#Cc3nccs3)CC2)c1)c1ccc(F)cc1 [Example 79] | < 1000 | < 100
N#CCNC(=O)C(=O)NCc1ccccc1C(=O)NC1(c2cc(Cl)cc(-c3cnc(C4CC4)nc3)c2)CC1 [Example 74] | 1000 to 10000 | < 100
C[C@@H](NC(=O)c1cc(F)c(F)cc1CNC(=O)C(=O)NCC#N)c1cccc2ccccc12 [Example 363] | < 1000 | 100 to 1000
C#CCNC(=O)C(=O)NCc1ccccc1C(=O)NC1(c2cc(-c3cnn(C4CC4)c3)ccc2Cl)CC1 [Example 384] | < 1000 | < 100
N#CC1(NC(=O)/C=C/CNC(=O)C(=O)NCc2ccccc2C(=O)NC2(c3cccc4ccccc34)CC2)CC1 [Example 564] | 1000 to 10000 | 100 to 1000
O=C(NCC#Cc1ccccn1)C(=O)NCc1ccccc1C(=O)NC1(c2ccc3ccccc3c2)CC1 [Example 174] | < 1000 | < 100
Cc1nn(C)c(C)c1-c1cc(C2(NC(=O)c3ccccc3CNC(=O)C(=O)NCC#Cc3nccs3)CC2)c2ccccc2c1 [Example 300] | < 1000 | < 100
C#Cc1cc(C(F)(F)F)cc(C2(NC(=O)c3ccccc3CNC(=O)C(=O)NCC#N)CC2)c1 [Example 70] | < 1000 | 100 to 1000
O=C(NCC#Cc1ccc(F)cn1)C(=O)NCc1ccccc1C(=O)NC1(c2ccc3ccccc3c2)CC1 [Example 192] | < 1000 | < 100

Structure (SMILES) | EC50 (SARS-CoV-2 replicon) [nM] | IC50 [1] [nM]
O=C(NCC#Cc1cc(F)ccn1)C(=O)NCc1ccccc1C(=O)NC1(c2ccc3ccccc3c2)CC1 [Example 187] | < 1000 | < 100
C#CCNC(=O)C(=O)NCc1ccccc1C(=O)NC1(c2cc(Cl)cc(-c3cnc(C4CC4)nc3)c2)CC1 [Example 73] | < 1000 | < 100
O=C(NCC#Cc1nc2ccccc2s1)C(=O)NCc1ccccc1C(=O)NC1(c2ccc3ccccc3c2)CC1 [Example 177] | 1000 to 10000 | 100 to 1000
C#CCNC(=O)C(=O)NCc1ccccc1C(=O)NC1(c2cc(F)cc(-c3cnn(C4CC4)c3)c2F)CC1 [Example 311] | < 1000 | < 100
Cn1cc2cc(C3(NC(=O)c4ccccc4CNC(=O)C(=O)NCC#Cc4ncccc4Cl)CC3)ccc2n1 [Example 269] | < 1000 | < 100
C[C@@H](C#Cc1nccs1)NC(=O)C(=O)NCc1ccccc1C(=O)NC1(c2ccnc3c2ccn3C2CC2)CC1 [Example 402] | < 1000 | < 100
N#CCNC(=O)C(=O)NCc1ccccc1C(=O)NC1(c2cc(F)c(F)c(-c3cnn(C4CC4)c3)c2)CC1 [Example 240] | > 10000 | < 100
CC(C)Oc1cccnc1C#CCNC(=O)C(=O)NCc1ccccc1C(=O)NC1(c2cc(F)cc(-c3cnn(C4CC4)c3)c2)CC1 [Example 267] | < 1000 | < 100
C#CCNC(=O)C(=O)NCc1ccccc1C(=O)NC1(c2cc(-c3cnn(C4CC4)c3)cc(C(F)(F)F)c2)CC1 [Example 471] | < 1000 | < 100
N#CN1CC[C@H](C(=O)NCc2ccccc2C(=O)NC2(c3cc(Br)cc4ccccc34)CC2)C1 [Example 417] | < 1000 | 
COC(=O)/C=C/CNC(=O)C(=O)NCc1c(F)cc(F)cc1C(=O)N[C@H](C)c1cccc2ccccc12 [Example 360] | 1000 to 10000 | 
NC(=O)N1CC[C@@H]1CNC(=O)C(=O)NCc1ccccc1C(=O)NC1(c2cccc3ccccc23)CC1 [Example 499] |  | 1000 to 10000
N#CCNC(=O)C(=O)NCc1ccccc1C(=O)NC1(c2cc(-c3cnn(C4CC4)c3)nc3[nH]ccc23)CC1 [Example 414] |  | 100 to 1000
C[C@@H](NC(=O)c1ccccc1CNC(=O)C(=O)NCC#N)c1cc(-c2ccsc2)cc(C(F)(F)F)c1 [Example 466] |  | > 10000
COc1cc(C2(NC(=O)c3ccccc3CNC(=O)C(=O)NC[C@@H]3CCN3)CC2)cc2cn(C3CC3)nc12 [Example 512] |  | 1000 to 10000
C[C@@H](NC(=O)c1ccccc1CNC(=O)C(=O)NC/C=C/C(=O)N1CCCNC(=O)C1)c1cccc2ccccc12 [Example 549] |  | 100 to 1000
N#CCNC(=O)C(=O)NCc1c(Cl)cccc1C(=O)NC1(c2cc(-c3cnn(C4CC4)c3)cc3ccccc23)CC1 [Example 291] |  | > 10000
C[C@@H](NC(=O)c1cc(F)cc(F)c1CNC(=O)C(=O)NCC#N)c1cccc2ccccc12 [Example 361] |  | > 10000
COC(=O)/C=C/CNC(=O)C(=O)NCC1C[C@@H]1C(=O)N[C@H](C)c1cccc2ccccc12 (some centres unmarked) [Example 20] |  | 1000 to 10000

— patent US20240327334A1, “Covalent Inhibitors As Antiviral Agents” (Enanta Pharmaceuticals, Inc., priority 2022, published 2024)
